Measurements published in ChEMBL document CHEMBL2384968, “Characterization of maleimide-based glycogen synthase kinase-3 (GSK-3) inhibitors as stimulators of steroidogenesis” (J Med Chem, 2013).
In brackets after ≈: the same amount, converted by molar mass.

Legend:
[1] = Cytotoxicity against mouse MA-10 cells at 100 uM after 2 hrs by MTT assay; type: cell-based; conditions: ma-10, 2 h
[2] = target: Glycogen synthase kinase-3 beta (Homo sapiens, UniProt P49841); assay: Inhibition of human GSK3beta-mediated YRRAAVPPSPSLSRHSSPHQ(pS)EDEEE phosphorylation
Glycogen synthase kinase-3 beta, sequence (P49841 whole entry): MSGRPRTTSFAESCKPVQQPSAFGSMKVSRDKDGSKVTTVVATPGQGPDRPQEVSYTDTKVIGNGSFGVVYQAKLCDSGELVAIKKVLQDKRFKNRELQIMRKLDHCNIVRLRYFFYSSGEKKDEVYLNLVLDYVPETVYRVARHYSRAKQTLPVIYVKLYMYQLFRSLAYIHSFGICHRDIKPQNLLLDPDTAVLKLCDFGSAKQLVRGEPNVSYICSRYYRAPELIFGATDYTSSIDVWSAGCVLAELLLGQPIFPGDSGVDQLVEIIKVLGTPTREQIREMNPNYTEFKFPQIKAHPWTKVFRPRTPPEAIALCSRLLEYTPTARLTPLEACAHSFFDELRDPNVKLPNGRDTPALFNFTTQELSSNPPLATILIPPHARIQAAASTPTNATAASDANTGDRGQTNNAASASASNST

[3] = Cytotoxicity against mouse MA-10 cells at 0.1 to 100 uM after 2 hrs by MTT assay; type: cell-based; conditions: ma-10, 2 h
[4] = Kinetic aqueous solubility of the compound by HPLC analysis; type: physicochemical; conditions: read-out: Kinetic_solubility

Structure (SMILES) | Activity [1] | IC50 [2] | Activity [3] | solubility kinetic [4]
O=C1NC(=O)C(c2cn3c4c(cc(F)cc24)CNCC3)=C1c1coc2ccccc12 | Toxic | 3.7 nM | Toxic | –
O=C1NC(=O)C(c2cn3c4c(cc(Br)cc24)CNCC3)=C1c1coc2ccccc12 | Toxic | 11.5 nM | Toxic | –
O=C1NC(=O)C(c2cn3c4c(cccc24)CN(C(=O)c2cnccn2)CC3)=C1c1coc2ccccc12 | Toxic | 0.2 nM | Toxic | –
O=C1NC(=O)C(c2cn3c4c(cccc24)CN(C(=O)Cc2ccncc2)CC3)=C1c1coc2ccccc12 | Toxic | 0.59 nM | Toxic | –
O=C1NC(=O)C(c2cn3c4c(cc(F)cc24)CN(C(=O)N2CCCCC2)CC3)=C1c1coc2ccccc12 | – | 1.9 nM | Non-toxic | –
O=C1NC(=O)C(c2cn3c4c(cc(F)cc24)CN(C(=O)N2CCC(N4CCCCC4)CC2)CC3)=C1c1coc2ccccc12 | Toxic | 0.53 nM | Toxic | –
O=C1NC(=O)C(c2cn3c4c(cc(F)cc24)CN(C(=O)N2CCOCC2)CC3)=C1c1coc2ccccc12 | Toxic | 0.013 nM | Toxic | –
O=C1NC(=O)C(c2cn(CCO)c3ccc(Br)cc23)=C1c1coc2ccccc12 | – | 21.4 nM | – | –
O=C1NC(=O)C(c2cn(CCO)c3ccc(F)cc23)=C1c1coc2ccccc12 | – | 4.8 nM | – | –
O=C1NC(=O)C(c2cn(CCCO)c3ccc(F)cc23)=C1c1coc2ccccc12 | – | 15 nM | – | –
NCCn1cc(C2=C(c3coc4ccccc34)C(=O)NC2=O)c2cc(Br)ccc21 | – | 116 nM | – | 180 µg/mL (≈ 400 µM)
NCCn1cc(C2=C(c3coc4ccccc34)C(=O)NC2=O)c2cc(F)ccc21 | – | 41.1 nM | – | –
CNCCCn1cc(C2=C(c3coc4ccccc34)C(=O)NC2=O)c2cc(Br)ccc21 | – | 404 nM | – | –
CNCCCn1cc(C2=C(c3coc4ccccc34)C(=O)NC2=O)c2cc(F)ccc21 | – | 202 nM | – | –
COCCn1cc(C2=C(c3coc4ccccc34)C(=O)NC2=O)c2ccccc21 | Non-toxic | 19.8 nM | Non-toxic | –
COCCn1cc(C2=C(c3coc4ccccc34)C(=O)NC2=O)c2cc(F)ccc21 | – | 39.7 nM | – | –

Structure (SMILES) | Activity [1] | IC50 [2] | Activity [3] | solubility kinetic [4]
COCCn1cc(C2=C(c3coc4ccccc34)C(=O)NC2=O)c2cc(Br)ccc21 | – | 82.3 nM | – | –
COCCn1cc(C2=C(c3coc4ccccc34)C(=O)NC2=O)c2cc(F)c(F)cc21 | Toxic | 35.7 nM | Toxic | –
Cn1cc(C2=C(c3coc4ccccc34)C(=O)NC2=O)c2cc(Br)cnc21 | Non-toxic | 5.3 nM | Non-toxic | –
COCCn1cc(C2=C(c3coc4ccccc34)C(=O)NC2=O)c2cc(Br)cnc21 | Non-toxic | 25.2 nM | Non-toxic | –
Cn1cc(C2=C(c3coc4ccccc34)C(=O)NC2=O)c2cccnc21 | – | 17.6 nM | – | –
COCCn1cc(C2=C(c3coc4ccccc34)C(=O)NC2=O)c2cccnc21 | Toxic | 58.2 nM | Toxic | –
COc1cc2c(C3=C(c4coc5ccccc45)C(=O)NC3=O)cn(C)c2cn1 | – | 65.9 nM | Non-toxic | –
COCCn1cc(C2=C(c3coc4ccccc34)C(=O)NC2=O)c2cc(OC)ncc21 | – | 127 nM | – | –
Cn1cc(C2=C(c3cnc4ccccn34)C(=O)NC2=O)c2cc3c(cc21)OCO3 | – | 5.3 nM | – | –
Cn1cc(C2=C(c3cnc4ccccn34)C(=O)NC2=O)c2cc(Br)ccc21 | – | 0.87 nM | Non-toxic | 35 µg/mL (≈ 83.1 µM)
COCCc1cccc2c(C3=C(c4coc5ccccc45)C(=O)NC3=O)cn(C)c12 | Non-toxic | 11.2 nM | Non-toxic | –
Cn1cc(C2=C(c3coc4ccccc34)C(=O)NC2=O)c2cccc(CCOC(C)(C)C)c21 | – | 148 nM | – | –
COCCc1cccc2c(C3=C(c4coc5ccccc45)C(=O)NC3=O)cn(CCOC)c12 | Toxic | 114 nM | Toxic | –
O=C1NC(=O)C(c2cn3c4c(cccc24)CNCC3)=C1c1coc2ccccc12 | – | 4.2 nM | – | 240 µg/mL (≈ 626 µM)
Cn1cc(C2=C(c3coc4ccccc34)C(=O)NC2=O)c2cc(Br)ccc21 | Non-toxic | – | Non-toxic | –
